We go through 3 molecules from US5484778A, “Phthalocyanine photosensitizers for photodynamic therapy and methods for their use” (priority 1993, dated 1996).

Molecules are shown by their SMILES.

For data set [1], the system named is Chinese hamster fibroblasts, i.e. V79 cells.
Description: Initially, applicants examined the photocytotoxicity of twenty-one phthalocyanines taken from a collection in the applicants' laboratories to Chinese hamster fibroblasts, i.e. V79 cells.
Data set [2] deals with Chinese hamster V79-379 cells. The experiment in a line: Growth delay of V79 cultures after red light (Table 1). It counts as cell-based. The note with it: for Growth Delay, efficiency relative to 1 μM AlPcCl: 18 h, 12 kJ/m^2 red light; for inhibition of V79 culture growth (in words): red light 12 kJ/m^2, three day period. As to the method: (§1) Chinese hamster V79-379 lung fibroblasts were grown in monolayer culture in McCoy's 5A medium (Gibco Laboratories, Grand Island, N.Y.) augmented with 10% calf serum and buffered with 20 mM HEPES (pH 7.4).
(§2) The cells were treated with 1 μM AlPcCl (from Eastman Kodak, Rochester, N.Y.) or with phthalocyanine compositions I-VI (0.5-1.0 μM final concentration in the medium) for 18 hours by adding the appropriate volume of a 1.0 mM stock solution in dimethylformamide (DMF) to the culture medium. The growth medium was replaced with 4 ml Hank's balanced salt solution (HBSS), and the cells were irradiated. The light source was a 500 W tungsten-halogen lamp located approximately 29 inches below the surface of a glass exposure tray. The visible light administered to the cells was filtered to allow passage of only that portion of the visible spectrum above 600 nm (Lee Primary red filter No. 106, Vincent Lighting, Cleveland, Ohio). The fluence rate was approximately 0.074 kJ/m^2 /s at the level of the cell monolayer.
At the time of light exposure, there were approximately 1.5×10^5 cells per 25 cm^2 flask. Following irradiation, the HBSS was replaced by 10 ml of fresh complete growth medium, and the cultures were returned to the 37° C. incubator. At various times before and after irradiation, duplicate cultures were trypsinized and counted. Controls included untreated cells and cells treated with light alone or drug alone. In addition, in each experiment, the drug to be tested was compared to a standard treatment, i.e. 1 μM AlPcCl for 18 hours followed by 12 kJ/m^2 light.
The inhibition of V79 culture growth was measured during a three day period following red light irradiation (12 kJ/m^2) of phthalocyanine-pretreated cells. With each of the active compounds, as well as with AlPcCl, there was an initial decrease in cell density, as dead cells became detached from the monolayer. Thereafter, the cell number per flask increased, as living cells grew and divided. The time for the cell density to recover to the level at the time of light exposure was considered the growth delay. […] The ratio of the growth delay for the test photosensitizer and the growth delay for AlPcCl measured in the same experiment is recorded in Table 1.

Another data set relates to L5178Y cells. The data set is described as follows: Induction of apoptosis (DNA fragmentation) in L5178Y-R cells (Table 6). It counts as cell-based, mouse. The note with it: 1 μM at a fluence of 30 kJ/m^2. The procedure, abridged: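 Exponentially growing mouse lymphoma L5178Y-R cells loaded 18 hours with phthalocyanine at various concentrations, then irradiated with >600 nm red light (up to 30 kJ/m^2, ~74 W/m^2). DNA isolated 2 hours post-PDT, run on 1.5% agarose; value is minimum PDT dose (concentration × fluence) giving visible DNA ladder.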

Another data set relates to viruses. The note with it: New York Blood Center (Ben-Hur); cited from earlier work.
Data set [3] relates to Chinese hamster V79-379 cells. The data set is described as follows: Clonogenic cell survival / photocytotoxicity in V79 cells (Table 1, FIG. 1, FIG. 2). It is filed as cell-based. On the procedure:
FIG. 1 is a graph illustrating the photodynamic efficacy of the various compositions of the present invention in comparison to AlPcCl. The phthalocyanine composition compounds of the present invention were tested for their photodynamic efficiency against Chinese hamster fibroblast V79 cells by colony formation. Monolayer cultures were treated with the indicated phthalocyanine composition for 18 hours, irradiated with various fluences of red light, and immediately trypsinized and replated at appropriate aliquots in triplicate. Colonies of at least 50 cells were counted after 7-10 days. The plating efficiency of the untreated cells was approximately 90%.
In this regard, in FIG. 2 the data of FIG. 1 were replotted as a function of the product of the amount of cell-associated phthalocyanine and the light fluence.
as §1, §2
Cells were irradiated at a density of approximately 2×10^6 per 25 cm^2 flask. Immediately after irradiation, the cell monolayer was treated with trypsin, and appropriate aliquots were plated in triplicate to give 100 to 200 colonies in each 10-cm Petri dish. Cell survival was determined by the ability of the cells to form colonies containing at least 50 cells. The response of cells treated with 1 μM AlPcCl and light was compared in each experiment.
Photocytotoxicity of the phthalocyanines compounds I to VI was also assessed by clonogenic assay (Table 1, FIG. 1). In all experiments, 1 μM AlPcCl was included for comparison purposes. From the survival curves (FIG. 1), the fluence reducing the cell survival to 10% (F10) was obtained. The ratio of the F10 for AlPcCl and the F10 for the test compound is recorded in Table 1.
In order to take differences in cellular uptake into consideration in the assessment of the relative efficiency of these phthalocyanines as photosensitizers of V79 cells, the survival data were replotted against the product of intracellular phthalocyanine concentration and light fluence (FIG. 2). From these curves, the product of intracellular concentration and light fluence reducing survival to 10% (CF10) was obtained, and comparisons of the values for AlPcCl and the test compounds are recorded in Table 1.

Another data set deals with RIF-1 tumors. The experiment in a line: PDT of RIF-1 implanted tumors (Table 7). It is filed as in vivo, C3H/HeN mice. The conditions noted are these: 1 mg/kg in corn oil; 675 nm, 135 J/cm^2. The method, boiled down:
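C3H/HeN mice each carried one RIF-1 fibrosarcoma on the back and received 1 mg/kg phthalocyanine as a corn-oil suspension. Volume was measured daily by calipers from a 50±10 mm^3 start and calculated with the hemiellipsoid model.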

As for `CCN(CC)CC(O)COCCC[Si](C)(C)O[Si]1(O)n2c3c4ccccc4c2N=C2N=C(N=c4c5ccccc5c(n41)=NC1=NC(=N3)c3ccccc31)c1ccccc12` (centres unmarked) [HOSiPcOSi(CH3)2 (CH2)3 OCH2 --CHOHCH2 N(C2 H5) 2], in data set [1], the “photocytotoxicity (in words)” value is reported as “excellent photocytotoxicity” and the “uptake by V79 cells (in words)” value is “taken up efficiently by the Chinese hamster fibroblast V79 cells”.
Take `C[N+](C)(C)CCC[Si](C)(C)O[Si]1(O[Si](C)(C)CCC[N+](C)(C)C)n2c3c4ccccc4c2N=C2N=C(N=c4c5ccccc5c(n41)=NC1=NC(=N3)c3ccccc31)c1ccccc12.[I-].[I-]` [Compound VI, SiPc[OSi(CH3)2 (CH2)3 N(CH3)3)^+ I^- ]2]: in data set [2], the “Growth Delay, efficiency relative to 1 μM AlPcCl” value was found to be 0.05 and the “inhibition of V79 culture growth (in words)” value is reported as “less inhibition of culture growth”. For the same molecule, the induction of apoptosis entry in the data set on L5178Y cells was “did not induce apoptosis”. In addition, in the data set with viruses, the “purging viruses from blood and/or blood components” value is recorded as “effective at purging viruses from blood and/or blood components”. In addition, the “photosensitizing efficiency / photocytotoxicity (in words)” value in data set [3] is on record as “low activity”.
As for `C[N+](C)(C)CCC[Si](C)(C)O[Si]1(O)n2c3c4ccccc4c2N=C2N=C(N=c4c5ccccc5c(n41)=NC1=NC(=N3)c3ccccc31)c1ccccc12.[I-]` (centres unmarked) [Compound V, HOSiPcOSi(CH3)2 (CH2)3 N(CH3)3^+ I^-], in data set [2], the “Growth Delay, efficiency relative to 1 μM AlPcCl” value stood at 0 and the “inhibition of V79 culture growth (in words)” value is listed as “less inhibition of culture growth”. Also, in the data set on RIF-1 tumors, the “Doubling Time of Initial Tumor Volume after PDT” value is reported as 6 days. Further, the induction of apoptosis result in the data set on L5178Y cells is given as “did not induce apoptosis”. The “purging viruses from blood and/or blood components” value in the data set on viruses is recorded as “effective at purging viruses from blood and/or blood components”. Also, the “CF10 (AlPcCl)/CF10 (Pc)” value in data set [3] (1.0 μM, 18 h, CF10 = intracellular concentration x fluence reducing survival to 10%) is listed as 3.0. Moreover, the “F10 (AlPcCl)/F10 (Pc)” value in data set [3] (1.0 μM, 18 h, F10 = fluence reducing survival to 10%) worked out at 0.59.
